Test systems include NCI-H23; NCI/ADR-RES; PC-3; MDA-MB-231; NCI-H226; SW-620; SK-MEL-28; HT-29; LOX IMVI; MCF7; SNB-19; EKVX; COLO 205; U-251; SK-OV-3; T47D; HOP-92; RXF 393; UACC-257; SF-539.
Assay in all cases: NCI tumour cell line growth inhibition, 48 h

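Cultured in 96-well plates, cells were exposed to test compound for 48 hours across five concentrations. GI50 = concentration required for 50% inhibition of growth.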 Calls of active or inactive are those of the source. No stated cut-off is given here; in the data, active = GI50 up to about 1.1 µM and inactive = higher. Square brackets hold non-standard residues; d marks the D form. Peptide text beside a SMILES is read from it. * marks the point of attachment. ξ: configuration not given here. ξF = NC(Cc1ccccc1)C(=O)O; Cbz = O=C(OCc1ccccc1)*; Aib = CC(C)(N)C(=O)O Some results are limits rather than exact numbers.

As to `O=C1CCC(c2ccccc2)(c2ccccc2)CC1`, the GI50 with NCI-H23 was 57.7 µM (inactive); with NCI/ADR-RES it was 40 µM (inactive); with PC-3, 73.6 µM (inactive); in the test on MDA-MB-231 it was > 100 µM (inactive); in the test with NCI-H226 it was 36.6 µM (inactive); in the test on SW-620, 82.2 µM (inactive). Further, the GI50 is > 100 µM (inactive) with SK-MEL-28; 55.5 µM (inactive) in the test with HT-29; > 100 µM (inactive) in the test on LOX IMVI; 46 µM (inactive) in the test on MCF7; > 100 µM (inactive) in the test with SNB-19; 92.3 µM (inactive) with EKVX. In addition, the GI50 with COLO 205 is 27.9 µM (inactive); with U-251 it was > 100 µM (inactive); in the test with SK-OV-3 it was > 100 µM (inactive); in the test on T47D it was 41.5 µM (inactive); with HOP-92 it was > 100 µM (inactive); in the test with RXF 393, > 100 µM (inactive). The GI50 in the test with UACC-257 is > 100 µM (inactive).
As to `CN(C)CCCn1c(Cc2ccccc2)nc2cc(C(F)(F)F)ccc21`, the GI50 in the test on NCI-H23 was 29.5 µM (inactive); with NCI/ADR-RES, 65.6 µM (inactive); in the test on PC-3 it was 29 µM (inactive); in the test with MDA-MB-231, 22.4 µM (inactive); in the test with NCI-H226, 40.3 µM (inactive); in the test on SW-620, 26.1 µM (inactive). Besides, the GI50 in the test on SK-MEL-28 is 19.1 µM (inactive); in the test on HT-29, 20.7 µM (inactive); in the test with LOX IMVI, 18 µM (inactive); in the test on MCF7, 20.5 µM (inactive); in the test on SNB-19 it was 24.1 µM (inactive); with EKVX it was 30.1 µM (inactive). For the same compound, the GI50 in the test on COLO 205 was 16.1 µM (inactive); in the test on U-251, 20 µM (inactive); in the test on SK-OV-3 it was 23.5 µM (inactive); with T47D, 19.9 µM (inactive); in the test on HOP-92, 20 µM (inactive); in the test with RXF 393, 21.2 µM (inactive). In addition, the GI50 in the test on UACC-257 is 18.1 µM (inactive).
As to `Cc1cc(S(=O)(=O)O)c(NC(=O)c2oc3cc(O)ccc3c(=O)c2C)cc1Cl`, the GI50 in the test on NCI-H23, in the test on NCI/ADR-RES, in the test on PC-3, with MDA-MB-231, in the test with SF-539 and in the test on NCI-H226 was > 100 µM (inactive) throughout. Moreover, the GI50 in the test on SW-620, in the test with SK-MEL-28, in the test on HT-29, in the test on LOX IMVI, in the test with MCF7 and in the test on SNB-19 was > 100 µM (inactive) each time. Further, the GI50 in the test with EKVX, with U-251, in the test on SK-OV-3, in the test with T47D, with RXF 393 and in the test on UACC-257 was > 100 µM (inactive) in each case.
On to `O=C1CSC(c2ccc(Cl)cc2)N1c1ccc(-n2c(-c3ccccc3)nc3ccccc3c2=O)cc1` (configuration not stated), for which the GI50 with NCI-H23 is > 100 µM (inactive); in the test with NCI/ADR-RES, 23.8 µM (inactive); in the test with PC-3, 53.8 µM (inactive); with MDA-MB-231, 33.2 µM (inactive); in the test with SF-539, > 100 µM (inactive); with NCI-H226, > 100 µM (inactive). The GI50 was 76 µM (inactive) in the test with SW-620; > 100 µM (inactive) in the test with SK-MEL-28; 84.7 µM (inactive) in the test on HT-29; 50.8 µM (inactive) in the test with LOX IMVI; 30.8 µM (inactive) in the test on MCF7; > 100 µM (inactive) in the test on SNB-19. Also, the GI50 was > 100 µM (inactive) with EKVX; > 100 µM (inactive) with COLO 205; 88.5 µM (inactive) in the test with U-251; > 100 µM (inactive) in the test with SK-OV-3; 8.36 µM (inactive) in the test with T47D; 10.3 µM (inactive) in the test with HOP-92. Further, the GI50 with UACC-257 is > 100 µM (inactive).
Turning to `COc1cc2c(cc1OC)C1C=NC(C2)c2cc(OC)c(OC)cc21` (configuration not stated), the GI50 is > 100 µM (inactive) with NCI/ADR-RES; > 100 µM (inactive) with PC-3; > 100 µM (inactive) in the test with MDA-MB-231; > 100 µM (inactive) in the test with SF-539; 6.97 µM (inactive) in the test with NCI-H226; > 100 µM (inactive) in the test with SW-620. In addition, the GI50 in the test with SK-MEL-28 is > 100 µM (inactive); in the test on HT-29, > 100 µM (inactive); in the test with LOX IMVI, > 100 µM (inactive); in the test with MCF7, 60.1 µM (inactive); in the test with SNB-19, > 100 µM (inactive); in the test with EKVX, 85.9 µM (inactive). Further, the GI50 in the test on COLO 205 was 89.7 µM (inactive); in the test with U-251 it was > 100 µM (inactive); in the test on SK-OV-3 it was > 100 µM (inactive); in the test on T47D, 90.8 µM (inactive); in the test on HOP-92, 4.49 µM (inactive); with UACC-257 it was > 100 µM (inactive).
Turning to `CC(C)OC(=O)NNc1cc(Cl)ccc1Cl`, the GI50 in the test on NCI-H23 is > 100 µM (inactive); in the test with NCI/ADR-RES, > 100 µM (inactive); in the test with PC-3, 56.8 µM (inactive); in the test on MDA-MB-231, > 100 µM (inactive); with SF-539, > 100 µM (inactive); in the test on SW-620 it was > 100 µM (inactive). Further, the GI50 with SK-MEL-28 was > 100 µM (inactive); with HT-29, > 100 µM (inactive); in the test on LOX IMVI, 67.3 µM (inactive); in the test on MCF7 it was 57.9 µM (inactive); in the test with SNB-19, > 100 µM (inactive); in the test on EKVX it was 30.8 µM (inactive). In addition, the GI50 with COLO 205 was > 100 µM (inactive); in the test with U-251, > 100 µM (inactive); with SK-OV-3, > 100 µM (inactive); in the test on T47D, 42 µM (inactive); with HOP-92, 34.8 µM (inactive); in the test on UACC-257 it was 39.7 µM (inactive).
`C=CCN1C(=O)CS/C1=N\NC(=O)CSc1nc2ccccc2c(=O)n1CC`: the GI50 with NCI-H23, in the test on NCI/ADR-RES, in the test with PC-3, in the test with MDA-MB-231, in the test on SF-539 and in the test on NCI-H226 was > 100 µM (inactive) each time. In addition, the GI50 in the test with SW-620, in the test on SK-MEL-28, in the test on HT-29, in the test with LOX IMVI, with MCF7 and in the test with SNB-19 was > 100 µM (inactive) each time. Besides, the GI50 in the test on EKVX, in the test on COLO 205, in the test on U-251, in the test with SK-OV-3, in the test on T47D and in the test on RXF 393 was > 100 µM (inactive) throughout. In the test on UACC-257, the GI50 is > 100 µM (inactive).
In the case of `Cc1nn(-c2ccccn2)c2c1C(SC#N)=C(C=O)CC2`, the GI50 in the test on NCI-H23 was 16.4 µM (inactive); with NCI/ADR-RES it was 20.1 µM (inactive); in the test with PC-3, 19.7 µM (inactive); with MDA-MB-231, 18 µM (inactive); in the test with SF-539, 19.1 µM (inactive); with SW-620, 13.7 µM (inactive). Also, the GI50 in the test with SK-MEL-28 is 21.2 µM (inactive); with HT-29, 16.1 µM (inactive); in the test on LOX IMVI it was 15.7 µM (inactive); with MCF7, 10.5 µM (inactive); in the test with SNB-19, 19.6 µM (inactive); in the test on EKVX, 16.9 µM (inactive). The GI50 is 10.5 µM (inactive) with COLO 205; 15.5 µM (inactive) in the test with U-251; 19.3 µM (inactive) in the test on SK-OV-3; 4.05 µM (inactive) in the test on T47D; 16.5 µM (inactive) in the test with HOP-92; 5.16 µM (inactive) in the test on RXF 393. For the same compound, the GI50 with UACC-257 is 5.12 µM (inactive).
For `OCCCSc1ccccc1SCCCO`, the GI50 with NCI-H23, in the test with NCI/ADR-RES, with PC-3, with MDA-MB-231, in the test with SF-539 and in the test with SW-620 was > 100 µM (inactive) in each case. The GI50 in the test on SK-MEL-28, in the test with HT-29, in the test on LOX IMVI, in the test on MCF7, in the test on SNB-19 and with EKVX was > 100 µM (inactive) each time. For the same compound, the GI50 with COLO 205 is > 100 µM (inactive); in the test with U-251, > 100 µM (inactive); with SK-OV-3, > 100 µM (inactive); with T47D, > 100 µM (inactive); in the test with HOP-92, < 0.01 µM (active); in the test on UACC-257, > 100 µM (inactive).
For the compound `CC(C)(NC(=O)OCc1ccccc1)C(=O)NC(Cc1ccccc1)C(=O)O` (configuration not stated) (Cbz-[Aib]-[ξF]-OH), the GI50 in the test on NCI-H23, with NCI/ADR-RES, in the test on PC-3, in the test with MDA-MB-231, in the test with SF-539 and in the test with NCI-H226 was > 100 µM (inactive) in each case. The GI50 in the test on SW-620, in the test on SK-MEL-28, in the test on HT-29, in the test with LOX IMVI, with MCF7 and in the test with SNB-19 was > 100 µM (inactive) throughout. The GI50 in the test with COLO 205, in the test on U-251, with SK-OV-3, with T47D, in the test on HOP-92 and in the test on UACC-257 was > 100 µM (inactive) throughout.
Take `c1ccc(CSSSCc2ccccc2)cc1` [DIBENZYL TRISULFIDE]: the GI50 in the test on NCI-H23 is 2.4 µM (inactive); with NCI/ADR-RES, 1.86 µM (inactive); in the test on PC-3, 1.32 µM (inactive); in the test with MDA-MB-231, 2.48 µM (inactive); with SW-620 it was 0.115 µM (active); in the test on SK-MEL-28, 20.7 µM (inactive). Also, the GI50 in the test on HT-29 was 1 µM (active); in the test with LOX IMVI it was 0.621 µM (active); in the test on MCF7, 0.385 µM (active); in the test with SNB-19, 15.3 µM (inactive); with EKVX, 6.52 µM (inactive); in the test on COLO 205, 1.87 µM (inactive). The GI50 with U-251 is 2.01 µM (inactive); with SK-OV-3, 3.61 µM (inactive); in the test on T47D it was 19.8 µM (inactive); in the test on RXF 393, 1.72 µM (inactive); in the test on UACC-257, 5.57 µM (inactive).

For the origin of these results see ChEMBL document CHEMBL1201862, “PubChem BioAssay data set” (2004).
